In patent US8901130B2, “Low hygroscopic aripiprazole drug substance and processes for the preparation” (Ostuka Pharmaceutical Co., Ltd., priority 2001, dated 2014):

Experiment: Hygroscopicity test (60° C./100% RH, 24 hours, Karl Fischer water content)
Type: physicochemical
Conditions: for hygroscopicity (water content after exposure): left for 24 hours in a dessicator set at humidity 100%; for hygroscopicity (water content after exposure) / Moisture Content After 24 hrs (%): temperature 60° C.; for Moisture Content After 24 hrs (%): 24 hours in dessicator at humidity 100%; for Initial Moisture Content (%): before exposure to 60° C./100% humidity
Method: (7) Hygroscopicity Test Method
One g of the sample was accurately weighed, in a weighing bottle (diameter 5 cm), covered with kimwipes and left to rest in a 60° C./100% RH environment (water/dessicator). 24 hours later, the weighing bottle was removed, transferred to an environment of a room temperature and about 30% RH (magnesium chloride hexahydrate saturated water solution/dessicator) and left, to rest for 24 hours and the water content of the sample was measured by the Karl Fischer method.

| SMILES | hygroscopicity (water content after exposure) | Moisture Content After 24 hrs (%) | Initial Moisture Content (%) |
| --- | --- | --- | --- |
| O=C1CCc2ccc(OCCCCN3CCN(c4cccc(Cl)c4Cl)CC3)cc2N1 [Anhydrous Aripiprazole Crystals B, aripiprazole] | ≤ 0.4% | – | – |
| O=C1CCc2ccc(OCCCCN3CCN(c4cccc(Cl)c4Cl)CC3)cc2N1 [Example 2, aripiprazole] | ≤ 0.4% | 0.04% | 0.04% |
| O=C1CCc2ccc(OCCCCN3CCN(c4cccc(Cl)c4Cl)CC3)cc2N1 [Example 3, aripiprazole] | ≤ 0.4% | 0.02% | 0.02% |
| O=C1CCc2ccc(OCCCCN3CCN(c4cccc(Cl)c4Cl)CC3)cc2N1 [Example 4, aripiprazole] | ≤ 0.4% | 0.02% | 0.02% |
| O=C1CCc2ccc(OCCCCN3CCN(c4cccc(Cl)c4Cl)CC3)cc2N1 [Example 5, aripiprazole] | ≤ 0.4% | 0.04% | 0.04% |
| O=C1CCc2ccc(OCCCCN3CCN(c4cccc(Cl)c4Cl)CC3)cc2N1 [Example 6, aripiprazole] | ≤ 0.4% | 0.04% | 0.04% |
| O=C1CCc2ccc(OCCCCN3CCN(c4cccc(Cl)c4Cl)CC3)cc2N1 [Example 7, aripiprazole] | ≤ 0.4% | 0.03% | 0.04% |
| O=C1CCc2ccc(OCCCCN3CCN(c4cccc(Cl)c4Cl)CC3)cc2N1 [Example 8, aripiprazole] | ≤ 0.4% | 0.03% | 0.04% |
| O=C1CCc2ccc(OCCCCN3CCN(c4cccc(Cl)c4Cl)CC3)cc2N1 [Example 9, aripiprazole] | ≤ 0.4% | 0.01% | 0.03% |
| O=C1CCc2ccc(OCCCCN3CCN(c4cccc(Cl)c4Cl)CC3)cc2N1 [Example 10, aripiprazole] | no more than 0.4% | 0.05% | 0.05% |

The remaining lines, values ahead:

| hygroscopicity (water content after exposure) | Moisture Content After 24 hrs (%) | Initial Moisture Content (%) | SMILES |
| --- | --- | --- | --- |
| ≤ 0.4% | 0.03% | 0.03% | O=C1CCc2ccc(OCCCCN3CCN(c4cccc(Cl)c4Cl)CC3)cc2N1 [Example 11, aripiprazole] |
| ≤ 0.4% | 0.03% | 0.04% | O=C1CCc2ccc(OCCCCN3CCN(c4cccc(Cl)c4Cl)CC3)cc2N1 [Example 12, aripiprazole] |
| ≤ 0.4% | 0.03% | 0.04% | O=C1CCc2ccc(OCCCCN3CCN(c4cccc(Cl)c4Cl)CC3)cc2N1 [Example 13, aripiprazole] |
| ≤ 0.4% | 0.09% | 0.06% | O=C1CCc2ccc(OCCCCN3CCN(c4cccc(Cl)c4Cl)CC3)cc2N1 [Example 14, aripiprazole] |
| ≤ 0.4% | 0.04% | 0.04% | O=C1CCc2ccc(OCCCCN3CCN(c4cccc(Cl)c4Cl)CC3)cc2N1 [Example 15, aripiprazole] |
| 3.28% | 3.28% | 0.04% | O=C1CCc2ccc(OCCCCN3CCN(c4cccc(Cl)c4Cl)CC3)cc2N1 [Reference Example 1, aripiprazole] |
| 1.78% | 1.78% | 0.04% | O=C1CCc2ccc(OCCCCN3CCN(c4cccc(Cl)c4Cl)CC3)cc2N1 [Reference Example 2, aripiprazole] |
